Test results from patent publication US20230263168A1, “COMBINED FUNGICIDAL PREPARATIONS AND METHODS FOR USING THEREOF” (SAVE FOODS LTD., priority 2020, published 2023).

Test system: Penecillium Digitatum
Test: Example 3, Trials 1-3: decay of inoculated clementine stored at room temp
Assay type: in vivo, Penecillium Digitatum on Clementine
Description: Fruits: Clementine; Inoculum: Penecillium Digitatum 10^5; Inoculation: 24 hours prior to treatment.
Storage: Cartons of fruit from all the treatments were stored for several days at room temp to monitor fruit spoilage and treatment efficacy.

C=CCOC(Cn1ccnc1)c1ccc(Cl)cc1Cl (stereo not drawn) [IMZ, imazalil]
% decay (waste) 12 days at room temp (Trial 1, IMZ 250 ppm, PAA 0, ACIDS 0): 55% | % decay (waste) 9 days at room temp (Trial 2, IMZ 250 ppm, PAA 0, ACIDS 0): 40% | % decay (waste) 9 days at room temp (Trial 2, IMZ 500 ppm, PAA 0, ACIDS 0): 19% | % decay (waste) 9 days at room temp (Trial 3, IMZ 250 ppm, PAA 0, ACIDS 0): 35% | % decay (waste) 9 days at room temp (Trial 3, IMZ 500 ppm, PAA 0, ACIDS 0): 24%

CC(=O)OO [PAA, peracetic acid]
% decay (waste) 9 days at room temp (Trial 3, PAA 150 ppm only): 36%
